Data on eight compounds can be found in article PMC4851381, “High Throughput Screening Identifies Novel Lead Compounds with Activity against Larval, Juvenile and Adult Schistosoma mansoni” (PLoS Neglected Tropical Diseases, 2016).

Data set [1] can be described thus: Cytotoxicity assay (Alamar blue). It is filed as cell-based. As to conditions: human. Here is the method:
Activity against mammalian cells was determined using MRC-5 cells. Cells were maintained in Minimum Essential Medium supplemented with glutamax (Gibco, UK), 1% non-essential amino acids (Gibco, UK) and 10% Foetal bovine serum (Gibco, UK). They were harvested by treatment with 0.25% Trypsin-EDTA for 3 minutes and diluted to 1x10^5/ml. 100μl aliquots of the cell suspension were then plated in 96 well plates (Nunc, Thermo Fisher Scientific, UK). The plates were left to incubate for 24 hours at 37°C and 5% CO2 in a humidified incubator. Cytotoxicity DR assays were set up 24 hours post incubation at 5% CO2 and 37°C, with compounds prepared at 3-fold dilutions starting from 50μM. Dilutions were added to the cells such that the final % DMSO/well was 0.5%. Each drug concentration was tested in duplicate. On each 96 well plate there were negative control wells of media only, MRC-5 cells only and MRC-5 cells with 0.5% DMSO. For positive control wells doxorubicin hydrochloride (Sigma-Aldrich, UK) was added to the cells at 100μM concentration. The cultures were then maintained for a further 72 hours at 37°C and 5% CO2. Drug cytotoxicity was determined using the redox indicator Alamar blue (AbD Serotec, UK). 10μl of Alamar Blue was added to each well and the plates incubated for 4 hours at 37°C and 5% CO2 atmosphere. The fluorescence intensity was measured using a Spectramax Gemini plate reader (Molecular Devices, UK) using an excitation wavelength of 530 nm and an emission wavelength of 580 nm.
(§1) IC50 values were calculated from the drug concentration–response curves using Microsoft XLfit version 5.1.0.0 (2006–2008 ID Business Solutions Ltd). Results were expressed as the geometric mean IC50.

Another data set deals with S. mansoni adult worms. The data set can be described thus: Adult worm assay, single point and dose response. Format: cell-based. As to conditions: Schistosoma mansoni. How it is done: (§2) For production of S. mansoni juvenile or adult worms, mice were infected subcutaneously under mild isoflurane (Merial Animal Health Ltd (UK)) anaesthesia with, respectively 1400 (for juveniles) or 450 cercariae (for adults). Worms were recovered from infected mice using sterile techniques by portal perfusion 3 weeks (for juveniles) or 6 weeks (for adults) post-infection using warm perfusion medium (Dulbecco’s Modified Eagle’s Medium [DMEM], 2mM L-glutamine, 100 Units/ml penicillin, 100μg/ml streptomycin, 20mM Hepes, 10 Units/ml heparin [Sigma, UK] [8]. Adult worms were washed free of red blood cells using the perfusion medium, and finally placed in culture in complete medium (cDMEM: DMEM, 2mM L-glutamine, 100 Units/ml penicillin, 100μg/ml streptomycin, 10% foetal calf serum (FCS) at 37°C, in an atmosphere of 5% CO2. Juvenile worms were sedimented successively following washing with cold perfusion medium and then suspended in cold cDMEM until dispensed to avoid attachment to the plastic tubes.
(§3) For the juvenile assay the concentration of worms was adjusted to 40/ml cDMEM and, prior to dispensing, the suspension was cooled on ice to prevent adherence of the worms to the plastic bottles. After swirling to resuspend worms,150μL of suspension was added to the wells of 96 well microtitre plates (Nunc, Thermo Fisher Scientific, UK). Wells were quickly checked and those with <5 worms were marked. The remainder were made up to 200μL and the deficient wells topped up with a worm suspension to ensure that all wells had ≥5 worms. The adult worm assay was as described in [8] except that 1ml cultures containing 3 worm pairs were generally used. Both the juvenile and adult worm assays were assessed for activity on days +1 and +5. Drug effects were determined by assessing the viability of individual worms and calculating the mean percentage inhibition, a hit being defined as ≥70% reduction in viability.
(§4) The primary HTS and subsequent juvenile and adult screens were run as single point (SP) assays at 10–12.5μM depending on the concentrations in the compound collections. Compounds were tested in duplicate. Where necessary, repeat testing was carried out on re-supplied liquid samples. All compounds of interest were re-tested as solid compounds or by repeat synthesis and activity confirmed.
(§5) Compounds with activity against all three parasite stages were tested in parallel dose response (DR) assays against juvenile worms and MRC-5 cells. Promising compounds were then tested in the adult DR. For the parasite DR (larvae, juveniles and adults) the concentrations tested were two fold dilutions starting from 2x the primary screening concentrations (i.e. 20–25μM).
as §1

The subject of a further data set is S. mansoni schistosomula. The data set is described as follows: Larval HTS and larval dose response (image-based phenotype and motility of schistosomula). Format: cell-based, Schistosoma mansoni. The settings on record: for EC50: Schistosoma mansoni, 72 h, 3 day assay, geometric mean; for Motility score / Phenotype score: 10μM control wells, negative control adjusted to zero. Here is the method:
Experiments were performed using the Puerto Rican strain of S. mansoni maintained in Biomphalaria glabrata and CD1 mice. The strain of snail was one bred by Prof Mike Doenhoff (Nottingham University) for high susceptibility to S. mansoni and ease of breeding in large numbers to high density. Careful attention was paid to controlling infections with rotifers which otherwise would contaminate the HTS schistosomula preparations as well as affecting snail viability. This included recovery of egg masses on short length pieces of polypropylene tubing placed into the breeding tanks and treatment of these with 3 x 10 seconds immersion in 70% ethanol with 3 minutes soaking in clean water in between alcohol treatments. Schistosomula were mechanically prepared as previously described with the modification of using a 45% and 70% Percoll gradient, and the cercarial heads recovered from the 70% layer. All centrifugation steps were done at 350x g. The schistosomula generated were then incubated overnight in M169 supplemented with 100U/ml Penicillin, 300μg/ml Streptomycin, 0.25μg/ml Fungizone (Amphotericin B) (Gibco, UK) and 5% Foetal Calf serum.
The larval HTS was run as described previously. Compound libraries were provided in 384 well plates as liquid either (i) small volumes in polypropylene 384 V-bottom storage plates (Greinerbio-one) that were diluted and 500nL dispensed into black 384 imaging plates (ViewPlate 6007460; PerkinElmer) using the Biomek FxP (Beckman Coulter) or (ii) in an assay-ready format from which a 40nL volume was transferred into wells of imaging plates. […] Therefore, to prevent fungal contamination 0.25μg/ml (0.27μM) of amphotericin B (AMP-B) was added to cultures both during the overnight culture prior to plating and during the 3 day assay.
The primary HTS and subsequent juvenile and adult screens were run as single point (SP) assays at 10–12.5μM depending on the concentrations in the compound collections. Compounds were tested in duplicate. Where necessary, repeat testing was carried out on re-supplied liquid samples.
as §5, §1

Data set [2] deals with S. mansoni juvenile worms. The data set can be described thus: Juvenile worm assay (3 week old worms), single point and dose response. Format: cell-based. The settings on record: Schistosoma mansoni. Here is the method: as §2, §3, §4, §5, §1
Where [3] appears, read: MRC-5 cells, first value of cell, 72 hours, read-out: MRC5 CC50.
The mark [4] stands for this setting: MRC-5 cells, value in parentheses (second sample; solid vs original liquid sample), read-out: MRC5 CC50.
The mark [5] stands for this setting: 24 h, day 1, read-out: Adult % motility reduction DAY 1.
Setting [6] is: 120 h, day 5, read-out: Adult % motility reduction DAY 5.
Where [7] appears, read: value in parentheses (second sample; solid vs original liquid sample).
[8] abbreviates: 24 h, day 1, read-out: Juvenile (% motility reduction) DAY 1.
Where [9] appears, read: 120 h, day 5, read-out: Juvenile (% motility reduction) DAY 5.
[10] abbreviates: first value of cell, geometric mean, * n = 1.

Like-named read-outs stand apart in the source and are kept apart here. Where only a bound is given, the exact number is not on record here.

For the compound `COc1ccccc1NC1=NN=C(c2cccc(N3CCCC3=O)c2)CS1` [compound 2389], the CC50 at 72 h in data set [1] (setting [3]) and in data set [1] (setting [4]) was over 50 µM each time. Further, the inhibition at 12.5 µM stood at 12.5% with S. mansoni adult worms (setting [5]), 100% in the data set with S. mansoni adult worms (setting [6]), 0% in data set [2] (setting [8]) and 100% in data set [2] (setting [9]). Further, the EC50 (usually the concentration at which the effect is half-maximal) in the data set with S. mansoni adult worms (first value of cell, * n = 1) was found to be 6 µM; with S. mansoni adult worms (setting [7]), 7.1 µM; with S. mansoni schistosomula, 6.1 µM; in data set [2] (setting [10]), 5.1 µM; in data set [2] (setting [7]), 5 µM.

Consider `COc1ccc(-c2nnc3ccc(-c4cccc(C(C)C)c4)cn23)cc1OC` [compound 1507], for which, in data set [1] (setting [3]), the 50% cytotoxic concentration (CC50) (in general, the concentration at which the toxic effect on the cells reaches its halfway point) at 72 h came to 18.6 µM. Besides, the inhibition at 12.5 µM stood at 75% with S. mansoni adult worms (setting [5]), 88% in the data set on S. mansoni adult worms (setting [6]), 75% in data set [2] (setting [8]) and 75% in data set [2] (setting [9]). Besides, the EC50 was determined as 1.6 µM in the data set on S. mansoni adult worms (first value of cell, * n = 1); 3 µM in the data set on S. mansoni adult worms (setting [7]); 6.6 µM in the data set on S. mansoni schistosomula; 4 µM in data set [2] (setting [10]); 9.8 µM in data set [2] (setting [7]).

For the compound `c1ccc(-c2[nH]c3ccccc3c2C(c2ccccn2)N2CCCC2)cc1` (stereo not shown) [compound 1956], the CC50 at 72 h in data set [1] (setting [3]) is over 50 µM. Also, the inhibition at 12.5 µM in the data set on S. mansoni adult worms (setting [5]) was 56%; in the data set with S. mansoni adult worms (setting [6]) it was 81%; in data set [2] (setting [8]), 75%; in data set [2] (setting [9]) it was 100%. For the same compound, the EC50 was 3.2 µM in the data set with S. mansoni adult worms (first value of cell, * n = 1); 11.8 µM in the data set on S. mansoni adult worms (setting [7]); 0.5 µM in the data set with S. mansoni schistosomula; 2.5 µM in data set [2] (setting [10]); 3.7 µM in data set [2] (setting [7]).

Consider `Clc1ccc(SCc2cc(N3CCCC3)nc(-c3ccccn3)n2)cc1` [compound 1716], for which the CC50 at 72 h in data set [1] (setting [3]) and in data set [1] (setting [4]) was over 50 µM throughout. Moreover, the inhibition at 12.5 µM was 64% with S. mansoni adult worms (setting [5]), 98% in the data set with S. mansoni adult worms (setting [6]), 0% in data set [2] (setting [8]) and 84% in data set [2] (setting [9]). Also, the EC50 turned out to be 2.8 µM in the data set on S. mansoni adult worms (first value of cell, * n = 1); 5.4 µM in the data set with S. mansoni adult worms (setting [7]); 0.3 µM with S. mansoni schistosomula; 11 µM in data set [2] (setting [10]); 9.5 µM in data set [2] (setting [7]).

For `c1ccc(Oc2ccc(-c3cncc(-c4ccc5[nH]ccc5c4)n3)cc2)cc1` [compound 2045], in data set [1] (setting [3]), the CC50 at 72 h turned out to be 20 µM. In addition, the inhibition at 12.5 µM is 37% in the data set with S. mansoni adult worms (setting [5]), 88% in the data set on S. mansoni adult worms (setting [6]), 50% in data set [2] (setting [8]) and 100% in data set [2] (setting [9]). Moreover, the EC50 with S. mansoni adult worms (first value of cell, * n = 1) came to 3.7 µM; in the data set with S. mansoni adult worms (setting [7]), 11 µM; in the data set with S. mansoni schistosomula, 1.4 µM; in data set [2] (setting [10]) it was 2.1 µM; in data set [2] (setting [7]), 3.6 µM.

For the compound `Cc1ccccc1C(=O)N1N=C(Nc2ccccc2)SC1(C)C` [compound 1355], the CC50 at 72 h in data set [1] (setting [3]) was over 50 µM; in data set [1] (setting [4]) it was 33.8 µM. Besides, the inhibition at 12.5 µM was found to be 75% in the data set on S. mansoni adult worms (setting [5]), 100% with S. mansoni adult worms (setting [6]), 75% in data set [2] (setting [8]) and 75% in data set [2] (setting [9]). Also, the EC50 in the data set with S. mansoni adult worms (first value of cell, * n = 1) was 5.3 µM; in the data set on S. mansoni adult worms (setting [7]) it was 11.2 µM; in the data set with S. mansoni schistosomula, 6.7 µM; in data set [2] (setting [10]) it was 5.8 µM; in data set [2] (setting [7]) it was 14.3 µM.

As for `COc1ccc(-c2cnc3cnc(-c4cccc(OC(C)C)c4)cn23)cc1` [compound 1945], the cytotoxic concentration (CC50) at 72 h in data set [1] (setting [3]) is 40.1 µM. Moreover, the inhibition at 12.5 µM (in the data set with S. mansoni adult worms (setting [5]); with S. mansoni adult worms (setting [6]); in data set [2] (setting [8]); in data set [2] (setting [9])) was 75% each time. The EC50 in the data set with S. mansoni adult worms (first value of cell, * n = 1) was 4.9 µM; in the data set with S. mansoni schistosomula, 6.7 µM; in data set [2] (setting [10]) it was 5.7 µM; in data set [2] (setting [7]) it was 13.7 µM.

Compound `Cc1c(-c2cnccn2)ssc1=S` [Oltipraz] returned a CC50 at 72 h in data set [1] (MRC5 CC50) of over 50 µM. The inhibition at 12.5 µM stood at 50% with S. mansoni adult worms (setting [5]), 95% with S. mansoni adult worms (setting [6]), 51% in data set [2] (setting [8]) and 100% in data set [2] (setting [9]). The concentration giving a half-maximal response (EC50) in the data set on S. mansoni adult worms (first value of cell, * n = 1) stood at 0.85 µM; in the data set on S. mansoni schistosomula it was 0.5 µM; in data set [2] (setting [10]), 0.8 µM. The Motility score in the data set with S. mansoni schistosomula (Enamine library plates) is -0.91 ±0.04; in the data set with S. mansoni schistosomula (GSK library plates) it was -0.93 ±0.03; with S. mansoni schistosomula (MMV library plates), -0.95 ±0.02; in the data set with S. mansoni schistosomula (Pfizer library plates) it was -0.94 ±0.02. The Phenotype score was -0.49 ±0.13 in the data set on S. mansoni schistosomula (Enamine library plates); -0.64 ±0.06 in the data set with S. mansoni schistosomula (GSK library plates); -0.55 ±0.06 with S. mansoni schistosomula (MMV library plates, mean ±SD); -0.56 ±0.08 in the data set on S. mansoni schistosomula (Pfizer library plates).
